Drawing on patent US9193733B2, “Piperidinylcyclobutyl substituted pyrrolopyridine and pyrrolopyrimidine derivatives as JAK inhibitors” (Incyte Corporation, priority 2012, dated 2015), this text covers IC50 and JAK2/JAK1 for 16 compounds.

Holding throughout (assay type): biochemical
Test [1] concerns the target T1, human JAK1 (a.a. 837-1142) catalytic domain (Homo sapiens, UniProt P23458).
T1 construct: human JAK1 (a.a. 837-1142) and JAK2 (a.a. 828-1132); His tag (N); made in house; host or cells: insect cells (baculovirus)
Description: In vitro JAK kinase assay (HTRF, phosphorylation of a biotinylated peptide), JAK1. Conditions: 1 mM ATP. On the procedure: (§1) Compounds herein were tested for inhibitory activity of JAK targets according to the following in vitro assay described in Park et al., Analytical Biochemistry 1999, 269, 94-104. The catalytic domains of human JAK1 (a.a. 837-1142) and JAK2 (a.a. 828-1132) with an N-terminal His tag were expressed using baculovirus in insect cells and purified. The catalytic activity of JAK1 and JAK2 was assayed by measuring the phosphorylation of a biotinylated peptide. The phosphorylated peptide was detected by homogenous time resolved fluorescence (HTRF). IC50s of compounds were measured for each kinase in the 40 microL reactions that contain the enzyme, ATP and 500 nM peptide in 50 mM Tris (pH 7.8) buffer with 100 mM NaCl, 5 mM DTT, and 0.1 mg/mL (0.01%) BSA. For the 1 mM IC50 measurements, ATP concentration in the reactions was 1 mM. Reactions were carried out at room temperature for 1 hour and then stopped with 20 μL 45 mM EDTA, 300 nM SA-APC, 6 nM Eu-Py20 in assay buffer (Perkin Elmer, Boston, Mass.). Binding to the Europium labeled antibody took place for 40 minutes and HTRF signal was measured on a Fusion plate reader (Perkin Elmer, Boston, Mass.). See Table A for data related to compounds of the Examples (at 1 mM). Data is indicated as ranges: <20 nM (+), 20 to <150 nM (++), 150 to 500 nM (+++).
In general terms: Time-resolved FRET reads energy transfer from a long-lived donor to a nearby acceptor.

Test [2] concerns human JAK1 (a.a. 837-1142) catalytic domain. Described as above. Conditions: ratio of JAK2 IC50 to JAK1 IC50, 1 mM ATP. On the procedure: as §1
Test [3] addresses T2, human JAK2 (a.a. 828-1132) catalytic domain (Homo sapiens, UniProt O60674).
T2 construct: human JAK1 (a.a. 837-1142) and JAK2 (a.a. 828-1132); His tag (N); made in house; host or cells: insect cells (baculovirus)
Description: In vitro JAK kinase assay (HTRF, phosphorylation of a biotinylated peptide), JAK2. Conditions: 1 mM ATP. On the procedure:
as §1

T1 sequence (P23458 849-1154): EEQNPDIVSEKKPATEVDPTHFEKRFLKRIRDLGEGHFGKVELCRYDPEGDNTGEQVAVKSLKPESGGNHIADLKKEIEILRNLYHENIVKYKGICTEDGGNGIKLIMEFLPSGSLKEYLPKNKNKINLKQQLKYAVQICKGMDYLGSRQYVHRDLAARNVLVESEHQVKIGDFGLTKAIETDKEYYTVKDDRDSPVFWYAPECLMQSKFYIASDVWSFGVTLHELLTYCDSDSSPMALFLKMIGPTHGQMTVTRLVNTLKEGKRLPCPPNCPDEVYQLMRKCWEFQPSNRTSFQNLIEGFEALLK
T2 sequence (O60674 828-1132): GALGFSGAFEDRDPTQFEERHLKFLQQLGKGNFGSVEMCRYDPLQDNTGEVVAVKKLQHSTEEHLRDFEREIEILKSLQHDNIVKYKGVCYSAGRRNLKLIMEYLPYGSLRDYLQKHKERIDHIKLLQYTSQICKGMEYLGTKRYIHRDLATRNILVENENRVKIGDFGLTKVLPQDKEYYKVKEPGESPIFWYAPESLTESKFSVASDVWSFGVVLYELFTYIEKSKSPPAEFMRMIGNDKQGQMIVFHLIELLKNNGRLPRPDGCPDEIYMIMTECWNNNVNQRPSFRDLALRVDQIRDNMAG

A word on the IC50: it is the concentration at which inhibition is half-maximal. Low values mean greater potency in that assay, high ones weaker potency in that assay. `N#CC[C@]1(n2cc(-c3ncnc4[nH]ccc34)cn2)C[C@H](N2CCC(Oc3cc(CNC4CCOCC4)cc(C(F)(F)F)n3)CC2)C1` [Example 5, [trans-1-[4-(7H-pyrrolo[2,3-d]pyrimidin-4-yl)-1H-pyrazol-1-yl]-3-(4-{[4-[(tetrahydro-2H-pyran-4-ylamino)methyl]-6-(trifluoromethyl)pyridin-2-yl]oxy}piperidin-1-yl)cyclobutyl]acetonitrile]: the IC50 in test [1] was < 20 nM; in test [3] it was 20 to 150 nM. Besides, the JAK2/JAK1 in test [2] is recorded as >10.
Taken in the same sequence, the figures for `N#CC[C@]1(n2cc(-c3ncnc4[nH]ccc34)cn2)C[C@H](N2CCC(Oc3cc(CNC4COC4)cc(C(F)(F)F)n3)CC2)C1` [Example 11, {trans-3-(4-{[4-[(oxetan-3-ylamino)methyl]-6-(trifluoromethyl)pyridin-2-yl]oxy}piperidin-1-yl)-1-[4-(7H-pyrrolo[2,3-d]pyrimidin-4-yl)-1H-pyrazol-1-yl]cyclobutyl}acetonitrile] were < 20 nM, 20 to 150 nM and >10.
The like results for `N#CC[C@]1(n2cc(-c3ncnc4[nH]ccc34)cn2)C[C@H](N2CCC(Nc3cc(CN4CCC(F)(F)C4)cc(C(F)(F)F)n3)CC2)C1` [Example 36, {trans-3-(4-{[4-[(3,3-difluoropyrrolidin-1-yl)methyl]-6-(trifluoromethyl)pyridin-2-yl]amino}piperidin-1-yl)-1-[4-(7H-pyrrolo[2,3-d]pyrimidin-4-yl)-1H-pyrazol-1-yl]cyclobutyl}acetonitrile] were, in that order, < 20 nM, 150 to 500 nM and >10.
Taken in the same sequence, the figures for `N#CC[C@]1(n2cc(-c3ncnc4[nH]ccc34)cn2)C[C@H](N2CCC(Oc3cc(CN[C@H]4CCOC4)cc(C(F)(F)F)n3)CC2)C1` [Example 7, [trans-1-[4-(7H-pyrrolo[2,3-d]pyrimidin-4-yl)-1H-pyrazol-1-yl]-3-(4-{[4-{[(3S)-tetrahydrofuran-3-ylamino]methyl}-6-(trifluoromethyl)pyridin-2-yl]oxy}piperidin-1-yl)cyclobutyl]acetonitrile] were < 20 nM, 20 to 150 nM and >10.
On to `C[C@@H](O)CNCc1cc(OC2CCN([C@H]3C[C@](CC#N)(n4cc(-c5ncnc6[nH]ccc56)cn4)C3)CC2)nc(C(F)(F)F)c1` [Example 14, {trans-3-(4-{[4-({[(2R)-2-hydroxypropyl]amino}methyl)-6-(trifluoromethyl)pyridin-2-yl]oxy}piperidin-1-yl)-1-[4-(7H-pyrrolo[2,3-d]pyrimidin-4-yl)-1H-pyrazol-1-yl]cyclobutyl}acetonitrile], for which the IC50 in test [1] is < 20 nM; in test [3], 20 to 150 nM. Besides, the JAK2/JAK1 in test [2] is >10.
The like results for `N#CC[C@]1(n2cc(-c3ncnc4[nH]ccc34)cn2)C[C@H](N2CCC(Oc3cc(Cn4cccn4)cc(C(F)(F)F)n3)CC2)C1` [Example 25, {trans-3-(4-{[4-(1H-pyrazol-1-ylmethyl)-6-(trifluoromethyl)pyridin-2-yl]oxy}piperidin-1-yl)-1-[4-(7H-pyrrolo[2,3-d]pyrimidin-4-yl)-1H-pyrazol-1-yl]cyclobutyl}acetonitrile] were, in that order, < 20 nM, 150 to 500 nM and >10.
On to `CC1(NCc2cc(OC3CCN([C@H]4C[C@](CC#N)(n5cc(-c6ncnc7[nH]ccc67)cn5)C4)CC3)nc(C(F)(F)F)c2)COC1` [Example 9, {trans-3-(4-{[4-{[(3-methyloxetan-3-yl)amino]methyl}-6-(trifluoromethyl)pyridin-2-yl]oxy}piperidin-1-yl)-1-[4-(7H-pyrrolo[2,3-d]pyrimidin-4-yl)-1H-pyrazol-1-yl]cyclobutyl}acetonitrile], for which the figures for the IC50 in test [1] and in test [3] were < 20 nM and 20 to 150 nM, respectively. For the same compound, the JAK2/JAK1 in test [2] is listed as >10.
With `C[C@H](O)CNCc1cc(OC2CCN([C@H]3C[C@](CC#N)(n4cc(-c5ncnc6[nH]ccc56)cn4)C3)CC2)nc(C(F)(F)F)c1` [Example 15, {trans-3-(4-{[4-({[(2S)-2-hydroxypropyl]amino}methyl)-6-(trifluoromethyl)pyridin-2-yl]oxy}piperidin-1-yl)-1-[4-(7H-pyrrolo[2,3-d]pyrimidin-4-yl)-1H-pyrazol-1-yl]cyclobutyl}acetonitrile], the IC50 in test [1] is < 20 nM; in test [3], 20 to 150 nM. Moreover, in test [2], the JAK2/JAK1 is listed as >10.
Regarding `N#CC[C@]1(n2cc(-c3ncnc4[nH]ccc34)cn2)C[C@H](N2CCC(Nc3cc(CN4CCOCC4)cc(C(F)(F)F)n3)CC2)C1` [Example 40, {trans-3-(4-{[4-(morpholin-4-ylmethyl)-6-(trifluoromethyl)pyridin-2-yl]amino}piperidin-1-yl)-1-[4-(7H-pyrrolo[2,3-d]pyrimidin-4-yl)-1H-pyrazol-1-yl]cyclobutyl}acetonitrile], the values for the IC50 in test [1] and in test [3] were < 20 nM and 20 to 150 nM, respectively. Also, the JAK2/JAK1 in test [2] is recorded as >10.
As for “{cis-3-(4-{[4-(2-hydroxyethyl)-6-(trifluoromethyl)pyridin-2-yl]amino}piperidin-1-yl)-1-[4-(7H-pyrrolo[2,3-d]pyrimidin-4-yl)-1H-pyrazol-1-yl]cyclobutyl}acetonitrile and {trans-3-(4-{[4-(2-hydroxyethyl)-6-(trifluoromethyl)pyridin-2-yl]amino}piperidin-1-yl)-1-[4-(7H-pyrrolo[2,3-d]pyrimidin-4-yl)-1H-pyrazol-1-yl]cyclobutyl}acetonitrile [Example 38]”, the results for the IC50 in test [1] and in test [3] were < 20 nM and 20 to 150 nM, respectively. Moreover, the JAK2/JAK1 in test [2] is >10.
The like results for `N#CC[C@]1(n2cc(-c3ncnc4[nH]ccc34)cn2)C[C@H](N2CCC(Oc3cc(C4(O)COC4)cc(C(F)(F)F)n3)CC2)C1` [Example 49, {trans-3-(4-{[4-(3-hydroxyoxetan-3-yl)-6-(trifluoromethyl)pyridin-2-yl]oxy}piperidin-1-yl)-1-[4-(7H-pyrrolo[2,3-d]pyrimidin-4-yl)-1H-pyrazol-1-yl]cyclobutyl}acetonitrile] were, in that order, < 20 nM, 20 to 150 nM and >10.
With `COCc1cc(NC2CCN([C@H]3C[C@](CC#N)(n4cc(-c5ncnc6[nH]ccc56)cn4)C3)CC2)nc(C(F)(F)F)c1` [Example 45, {trans-3-(4-{[4-(methoxymethyl)-6-(trifluoromethyl)pyridin-2-yl]amino}piperidin-1-yl)-1-[4-(7H-pyrrolo[2,3-d]pyrimidin-4-yl)-1H-pyrazol-1-yl]cyclobutyl}acetonitrile], the results for the IC50 in test [1] and in test [3] were < 20 nM and 20 to 150 nM, respectively. For the same compound, the JAK2/JAK1 in test [2] is >10.
Taken in the same sequence, the figures for `N#CC[C@]1(n2cc(-c3ncnc4[nH]ccc34)cn2)C[C@H](N2CCC(Nc3cc(CN4CC[C@H](O)C4)cc(C(F)(F)F)n3)CC2)C1` [Example 43, {trans-3-(4-{[4-{[(3S)-3-hydroxypyrrolidin-1-yl]methyl}-6-(trifluoromethyl)pyridin-2-yl]amino}piperidin-1-yl)-1-[4-(7H-pyrrolo[2,3-d]pyrimidin-4-yl)-1H-pyrazol-1-yl]cyclobutyl}acetonitrile] were < 20 nM, 20 to 150 nM and >10.
`CN(Cc1cc(NC2CCN([C@H]3C[C@](CC#N)(n4cc(-c5ncnc6[nH]ccc56)cn4)C3)CC2)nc(C(F)(F)F)c1)C1CC1` [Example 37, {trans-3-(4-{[4-{[cyclopropyl(methyl)amino]methyl}-6-(trifluoromethyl)pyridin-2-yl]amino}piperidin-1-yl)-1-[4-(7H-pyrrolo[2,3-d]pyrimidin-4-yl)-1H-pyrazol-1-yl]cyclobutyl}acetonitrile]: the results for the IC50 in test [1] and in test [3] were < 20 nM and 150 to 500 nM, respectively. Moreover, the JAK2/JAK1 in test [2] is given as >10.
Regarding `CCNCc1cc(NC2CCN([C@H]3C[C@](CC#N)(n4cc(-c5ncnc6[nH]ccc56)cn4)C3)CC2)nc(C(F)(F)F)c1` [Example 32, {trans-3-(4-{[4-[(ethylamino)methyl]-6-(trifluoromethyl)pyridin-2-yl]amino}piperidin-1-yl)-1-[4-(7H-pyrrolo[2,3-d]pyrimidin-4-yl)-1H-pyrazol-1-yl]cyclobutyl}acetonitrile], the IC50 in test [1] was < 20 nM; in test [3], 20 to 150 nM. Also, the JAK2/JAK1 in test [2] was >10.
Taken in the same sequence, the figures for `N#CC[C@]1(n2cc(-c3ncnc4[nH]ccc34)cn2)C[C@H](N2CCC(Nc3cc(CN4CC[C@@H](O)C4)cc(C(F)(F)F)n3)CC2)C1` [Example 44, {trans-3-(4-{[4-{[(3R)-3-hydroxypyrrolidin-1-yl]methyl}-6-(trifluoromethyl)pyridin-2-yl]amino}piperidin-1-yl)-1-[4-(7H-pyrrolo[2,3-d]pyrimidin-4-yl)-1H-pyrazol-1-yl]cyclobutyl}acetonitrile] were < 20 nM, 20 to 150 nM and >10.
